# Literature values as cited in patent publication US12605432B2, “Combinations for antigen based therapy” (Diamyd Medical AB, priority 2014, dated 2026).
# Read-outs that look alike come from different tables or passages of the source.
# Key:
# [1] = system: dendritic cells (DCs)
# [2] = system: residual insulin secretion in T1D patients; conditions: in vivo
# [3] = system: blood glucose (BG) concentrations in patients; conditions: diabetic and nondiabetic patients in general clinical practice
# [4] = system: T1D in NOD mice; conditions: mouse, in vivo
# [5] = system: macrophage cultures
# [6] = system: DCs; conditions: decreased CD40, CD80, CD86, low IL-12, enhanced IL-10 secretion
# [7] = system: mouse islet allografts; autoimmune diabetes
# [8] = system: B cells, dendritic cells and T cells
# [9] = system: high risk individuals
molecule,measurement,setting,value
CC(C)Cc1ccc(C(C)C(=O)O)cc1 (stereo not shown) [ibuprofen],expression level of total MHC molecules and co-stimulatory molecules on DCs,[1],increased
same,phagocytic activity of DCs,[1],did not inhibit
same,MHC class I and class II-restricted presentation of antigen,[1]; dendritic cells,inhibit MHC class I and class II-restricted presentation of antigen
NC(=O)c1cccnc1 [nicotinamide],effect of protective agents,[2],no or transient effect
CNC(=O)c1cc(Oc2ccc(NC(=O)Nc3ccc(Cl)c(C(F)(F)F)c3)cc2)ccn1 [sorafenib],blood glucose (BG),[3],significant declines in BG
FC(F)(F)c1ccc(CNc2ccc(Cc3c[nH]c4ncccc34)cn2)cc1 [PLX647],effect on T1D in NOD mice,[4],only marginal efficacy
Cc1ccc(NC(=O)c2ccc(CN3CCN(C)CC3)cc2)cc1Nc1nccc(-c2cccnc2)n1 [imatinib],effect on T1D in NOD mice,[4],prevented and reversed T1D
same,IL-10 secretion,[5],induced secretion of anti-inflammatory IL-10
CC1=NS(=O)(=O)c2cc(Cl)ccc2N1 [diazoxide],effect of protective agents,[2],no or transient effect
"C=C1/C(=C\C=C2/CCC[C@]3(C)[C@@H]([C@H](C)CCCC(C)(C)O)CC[C@@H]23)C[C@@H](O)C[C@@H]1O [1,25-Dihydroxyvitamin D(3)]",DC phenotype,[6],induces DCs with a tolerogenic phenotype
same,tolerance to islet allografts,[7]; mouse,induced tolerance to mouse islet allografts
same,diabetes development,[7]; non-hypercalcemic doses,inhibited diabetes development
same,expression of IL-10 by dendritic cells and T cells,[8],enhances
same,expression of IgE by B cells,[8],inhibits
Insulin: β cell specific auto-antigen,prevention of diabetes,[9]; oral administration,may have a slight effect
same,prevention of diabetes,[9]; parenteral administration (DPT),no effect
